In ChEMBL document CHEMBL1149222, “Synthesis and in vitro antimycobacterial activity of novel 3-(1H-pyrrol-1-yl)-2-oxazolidinone analogues of PNU-100480” (2004):
≈ marks a conversion by molar mass, not a printed value.

What was measured:
Format in all cases: functional
MT4 = assay: Cytotoxicity of compound against mock-infected MT-4 cells was evaluated by MTT assay; conditions: Homo sapiens
Mycobacterium [1] = assay: In vitro anti-mycobacterial activity against Mycobacterium avium complex was determined
Mycobacterium [2] = assay: (§1) In vitro anti-mycobacterial activity against Mycobacterium smegmatis determined by the MTT method
[3] = test system: Mycolicibacterium smegmatis; assay: as §1
[4] = test system: Mycobacterium tuberculosis; assay: In vitro anti-mycobacterial activity against Mycobacterium tuberculosis ATCC 27294 was determined
[5] = test system: Mycobacterium tuberculosis; assay: In vitro anti-mycobacterial activity against Mycobacterium tuberculosis C.I. 1104 was determined
[6] = test system: Mycolicibacterium fortuitum; assay: In vitro anti-mycobacterial activity against Mycobacterium fortuitum was determined
[7] = test system: Mycolicibacterium smegmatis; assay: In vitro anti-mycobacterial activity against Mycobacterium smegmatis was determined
[8] = test system: Mycobacterium tuberculosis; assay: In vitro anti-mycobacterial activity against Mycobacterium tuberculosis ATCC 27294, determined by the MTT method
[9] = test system: Mycobacterium tuberculosis; assay: In vitro anti-mycobacterial activity against Mycobacterium tuberculosis C.I. 1104, determined by the MTT method
[10] = test system: Mycolicibacterium fortuitum; assay: In vitro anti-mycobacterial activity against Mycobacterium fortuitum determined by the MTT method

SMILES	CC50 (MT4) [µM]	MIC50 (Mycobacterium [1]) [µM]	MIC90 (Mycobacterium [2]) [µM]	MIC90 [3] [µM]	MIC50 [4] [µM]	MIC50 [5] [µM]	MIC50 [6] [µM]	MIC50 [7] [µM]	MIC90 [8] [µM]	MIC90 [9] [µM]	MIC90 [10] [µM]
CC(=O)NC[C@H]1CN(c2ccn(-c3ccc(N4CCOCC4)c(F)c3)c2)C(=O)O1	> 100	16.5 (≈ 6.64 µg/mL)	100 (≈ 40.2 µg/mL)	> 100	12.9 (≈ 5.19 µg/mL)	49 (≈ 19.7 µg/mL)	> 100	42.6 (≈ 17.1 µg/mL)	100 (≈ 40.2 µg/mL)	> 100	
NNC(=O)c1ccncc1 [ISONIAZID]	> 100	1.4 (≈ 0.192 µg/mL)	4.7 (≈ 0.645 µg/mL)	6.7 (≈ 0.919 µg/mL)	0.09 (≈ 0.0123 µg/mL)	0.06 (≈ 0.00823 µg/mL)	> 100	1.8 (≈ 0.247 µg/mL)	9.8 (≈ 1.34 µg/mL)	0.2 (≈ 0.0274 µg/mL)	
CC(=O)NC[C@H]1CN(c2ccc(N3CCSCC3)c(F)c2)C(=O)O1 [SUTEZOLID]	> 100	0.7 (≈ 0.247 µg/mL)	5 (≈ 1.77 µg/mL)	1.6 (≈ 0.565 µg/mL)	0.1 (≈ 0.0353 µg/mL)	0.5 (≈ 0.177 µg/mL)	> 100	0.5 (≈ 0.177 µg/mL)	0.9 (≈ 0.318 µg/mL)	2.5 (≈ 0.884 µg/mL)	
CC(=O)NC[C@H]1CN(c2ccn(-c3ccccc3)c2)C(=O)O1	> 100	4 (≈ 1.2 µg/mL)	32.8 (≈ 9.82 µg/mL)	41.3 (≈ 12.4 µg/mL)	19 (≈ 5.69 µg/mL)	10.5 (≈ 3.14 µg/mL)	> 100	9.8 (≈ 2.93 µg/mL)	74 (≈ 22.2 µg/mL)	77.8 (≈ 23.3 µg/mL)	
CC(=O)NC[C@H]1CN(c2ccn(-c3ccc(F)cc3)c2)C(=O)O1	100	1.4 (≈ 0.444 µg/mL)	5.8 (≈ 1.84 µg/mL)	45.8 (≈ 14.5 µg/mL)	1.9 (≈ 0.603 µg/mL)		> 100	10.3 (≈ 3.27 µg/mL)	19.7 (≈ 6.25 µg/mL)		
CC(=O)NC[C@H]1CN(c2ccn(N3CCOCC3)c2)C(=O)O1	> 100	> 100			> 100	> 100	> 1000	> 100			
CC(=O)NC[C@H]1CN(c2ccn(-c3ccccc3F)c2)C(=O)O1	33.3	2 (≈ 0.635 µg/mL)	8.9 (≈ 2.82 µg/mL)	15.7 (≈ 4.98 µg/mL)	3.6 (≈ 1.14 µg/mL)		88.6 (≈ 28.1 µg/mL)	4.2 (≈ 1.33 µg/mL)	24.7 (≈ 7.84 µg/mL)		> 100
CC(=O)NC[C@H]1CN(c2ccn(-c3ccc(N4CCSCC4)c(F)c3)c2)C(=O)O1	20	4.8 (≈ 2.01 µg/mL)	11.8 (≈ 4.94 µg/mL)	> 100	9.8 (≈ 4.1 µg/mL)	12.2 (≈ 5.11 µg/mL)	> 100	34 (≈ 14.2 µg/mL)	25 (≈ 10.5 µg/mL)	31 (≈ 13 µg/mL)	
CC(=O)NC[C@H]1CN(c2ccn(-c3cccc(F)c3)c2)C(=O)O1	> 100	4.6 (≈ 1.46 µg/mL)	39.8 (≈ 12.6 µg/mL)	56.3 (≈ 17.9 µg/mL)	12.9 (≈ 4.09 µg/mL)	9.4 (≈ 2.98 µg/mL)	> 100	14.5 (≈ 4.6 µg/mL)	91.4 (≈ 29 µg/mL)	76.9 (≈ 24.4 µg/mL)	
